Assay results as given in publication PMC5913645, “Methyl phenlactonoates are efficient strigolactone analogs with simple structure” (Journal of Experimental Botany, 2017).
Where two headings read alike, the source gives them in different places.

Columns and labels:
[1] = target: T1, OsD14 (Oryza sativa subsp. japonica, UniProt Q10QA5); test: Intrinsic tryptophan fluorescence assay, OsD14; format: binding, rice
T1 construct: made in house; host or cells: E. coli BL21 (DE3)
T1 sequence (Q10QA5 1-318): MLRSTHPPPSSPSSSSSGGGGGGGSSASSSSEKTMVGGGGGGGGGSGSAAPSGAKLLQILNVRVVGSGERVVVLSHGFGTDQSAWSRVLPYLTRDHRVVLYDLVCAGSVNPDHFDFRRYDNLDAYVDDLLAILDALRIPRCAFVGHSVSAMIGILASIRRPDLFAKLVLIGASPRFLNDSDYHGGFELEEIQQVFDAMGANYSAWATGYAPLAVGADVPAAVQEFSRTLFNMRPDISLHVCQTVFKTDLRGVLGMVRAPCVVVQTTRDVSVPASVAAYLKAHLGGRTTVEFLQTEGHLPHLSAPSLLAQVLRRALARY
Excerpt: Striga hermonthica ShHTL7 cDNA was used, GenBank accession KR013127, kindly provided by Tsuyoshi Ota, The University of Tokyo, Japan. Arabidopsis D14 (AtD14) cDNA, GenBank accession AY097402, was synthesized and cloned into pUC57 (GenScript). ShHTL7 and OsD14 cDNAs were amplified by RT-PCR using the primers shown in Supplementary Table S2, digested with BamHI and XhoI, and ligated into BamHI/XhoI-digested pGEX-6P-1 expression vector (GE Healthcare). Integrity of plasmids was confirmed by sequencing (KAUST Bioscience Core Lab). The plasmids were then transformed into E. coli BL21 (DE3) cells. The cells were grown in LB broth containing ampicillin ([…]), incubated at 37 °C until OD600 of 0.6 and induced with 0.1 mM isopropyl-β-D-thiogalactopyranoside at 16 °C for 16 h. Harvested cells were resuspended in lysis buffer: 50 mM Tris–HCl (pH 8.0), 200 mM NaCl, 0.5% Tween-20 and 2 mM dithiothreitol (DTT). After sonication on ice for 10 min, the lysate was centrifuged at 75 000 g for 30 min at 4 °C. Supernatant was allowed to bind to glutathione–sepharose beads (GE Healthcare) for 2 h at 4 °C, washed 3 times with buffer (50 mM Tris-HCl (pH 8.0), 200 mM NaCl, 2 mM DTT), and eluted by cleaving the GST moiety with PreScission™ Protease (GE Healthcare) at 4 °C overnight. Eluted protein was further purified by gel filtration using a HiLoad 16/60 Superdex200 prep grade column (GE Healthcare) on an AKTA prime system (GE Healthcare) in gel filtration buffer (10 mM HEPES pH 7.5, 50 mM KCl and 2 mM DTT). Protein eluted as a sharp single peak and purity was judged by 4–15% SDS-PAGE (Bio-Rad). Purified protein was concentrated using an Amicon 10K filter unit (Merck Millipore) and stored at −80 °C until use. A similar expression and purification protocol was followed for OsD14 protein, except that OsD14 was eluted from glutathione resins using 0.2 mM reduced glutathione (Sigma-Aldrich) without cutting the GST tag.
ShHTL7/D14 tryptophans were excited at 280 nm and emission intensity was measured at 333 nm. ShHTL7/D14 (10 μM) was incubated at various dilutions (0.2, 0.4, 0.8, 1.6, 3.12, 6.25, 12.5, 25, and 50 μM) of GR24 and MPs for 30 min at room temperature before measurement. Each concentration point was measured in triplicate. Emitted fluorescence was monitored using a spectraMaxi3 plate reader (Molecular Devices) in 96-well black plates. Changes in tryptophan fluorescence intensity occur due to conformational changes in protein when it is bound to ligand; differences in fluorescence intensity were recorded and analysed. Data were normalized and dissociation coefficient (Kd) values were calculated by fitting to a binding saturation single-site model with Prism 6 (GraphPad).

[2] = Chemical stability in aqueous solution (UHPLC); format: physicochemical; conditions: aqueous solution pH 6.8, 21 °C, 50 μg ml^−1, monitored at 24 h intervals up to 3 weeks
Experimental: Aqueous solutions of MPs (50 μg ml^−1; pH 6.8) were incubated at 21 °C in amber HPLC vials (adapted from [de Saint Germain et al., 2016]). For sample preparation, 50 μl of an acetone solution (1 mg ml^−1) was diluted to the final concentration with methanol (425 μl), water (500 μl) and 25 μl of 1-indanol (1.0 mg ml^−1 solution in acetone) as internal standard. […] Compounds eluted from the column were detected with a diode array detector. The relative quantity of remaining (non-degraded) product was determined by comparison with the internal standard. Stability was monitored at 24 h intervals up to 3 weeks.

[3] = test system: Arabidopsis seedlings; test: Arabidopsis lateral root density; format: in vivo; conditions: 1.0 μM, 8-day-old seedlings
Experimental: Sterilized Arabidopsis seeds were sown on half-strength MS (with 0.5% sucrose+1% agar, 0.5 g l^−1 MES, pH 5.7) plates supplemented with GR24 or MPs (at 1.0 μM). Plates were stored at 4 °C in darkness for 3 d and then vertically grown at 22 °C in a Percival incubator under long day condition (16 h at 22 °C/8 h at 16 °C day/night, 60% relative humidity, 60–70 μmol m^−2 s^−1 white light) for 8 d. For determining the effect on lateral root density and primary root length, at least 30 seedlings were measured using ImageJ software after scanning roots.

[4] = 10 μM protein, 30 min, room temperature, read-out: Kd, OsD14

Structure (SMILES) | Kd [1] [µM] | stability in comparison with GR24 [2] | reduction of lateral root number/density [3] | Kd [1, 4] [µM]
CC1=CC(OC=C2C(=O)OC3c4ccccc4CC23)OC1=O (stereo not drawn) [GR24, reference compound] | 4.17 ± 0.32 |  |  | 
COC(=O)/C(=C/OC1C=C(C)C(=O)O1)c1ccc([N+](=O)[O-])cc1 (stereo not drawn) [MP1, (E)-methyl 3-(4-methyl-5-oxo-2,5-dihydrofuran-2-yloxy)-2-(4-nitrophenyl)acrylate] |  | slightly less stable than GR24 | most efficient compound and showed an activity higher than that of GR24 | 3.52 ± 0.35
COC(=O)/C(=C/OC1C=C(C)C(=O)O1)c1ccccc1 (stereo not drawn) [MP3, (E)-methyl 3-(4-methyl-5-oxo-2,5-dihydrofuran-2-yloxy)-2-phenylacrylate] |  | more stable than GR24 |  | 7.46 ± 0.53
COC(=O)/C(=C/OC1C=C(C)C(=O)O1)c1ccc(Cl)cc1 (stereo not drawn) [MP7] |  | more stable than GR24 | slightly more active than GR24 | 8.74 ± 0.83
